# Values joined by “and” are separate entries in the source; they are usually repeats but may differ in a detail not shown here. Equal values may be shown once.
# Biological target: T1, partially purified rat brain farnesyl protein transferase (FPT) (Rattus norvegicus, UniProt Q02293+Q04631)
# T1 construct: partially purified rat brain farnesyl protein transferase (FPT); from tissue; host or cells: rat brain
# Assay: FPT IC50 in vitro enzyme assay (inhibition of Ras-CVLS farnesylation)
# Assay type: biochemical
# Settings: inhibition of Ras-CVLS famesylation; methods of WO/10515 or WO 95/10516
# Method: 1. In vitro enzyme assays: FPT IC50 (inhibition of farnesyl protein transferase, in vitro enzyme assay) are determined by the methods disclosed in […] or WO 95/10516.
# T1 sequence (Q02293 whole entry, one chain of several): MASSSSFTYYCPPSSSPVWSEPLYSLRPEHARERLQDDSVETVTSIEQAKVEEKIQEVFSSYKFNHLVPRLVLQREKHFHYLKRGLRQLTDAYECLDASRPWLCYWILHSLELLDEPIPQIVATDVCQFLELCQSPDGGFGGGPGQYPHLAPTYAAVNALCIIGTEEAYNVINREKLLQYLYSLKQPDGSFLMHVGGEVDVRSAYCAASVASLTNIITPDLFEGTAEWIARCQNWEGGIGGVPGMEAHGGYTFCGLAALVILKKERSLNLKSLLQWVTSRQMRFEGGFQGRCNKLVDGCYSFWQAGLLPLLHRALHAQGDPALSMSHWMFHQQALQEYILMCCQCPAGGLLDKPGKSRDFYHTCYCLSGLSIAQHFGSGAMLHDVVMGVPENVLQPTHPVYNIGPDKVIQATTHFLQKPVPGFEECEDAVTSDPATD
row,SMILES,IC50
1,"CC(c1ccccc1)N1CCN(C(=O)NC2CCCCC2)[C@@H](C(=O)NCCc2cncn2Cc2ccc(C#N)cc2)C1 (stereo partly drawn) [Example 1, N2-[2-[1-[(4-cyanophenyl)methyl]-1H-imidazol-5-yl]ethyl]-N1-cyclohexyl-4-(1-phenylethyl)-1,2(R)-piperazinedicarboxamide]",0.18 to 21 nM
2,N#Cc1ccc(Cn2cncc2CCNC(=O)[C@H]2CN(Cc3ccncc3)CCN2C(=O)NC2CCCCC2)cc1 [Example 5],0.18 to 21 nM
3,N#Cc1ccc(Cn2cncc2CCNC(=O)[C@H]2CN(CC3CC4C=CC3C4)CCN2C(=O)NC2CCCCC2)cc1 (stereo partly shown) [Example 6],0.18 to 21 nM
4,CC(=O)Nc1ccc(CN2CCN(C(=O)NC3CCCCC3)[C@@H](C(=O)NCCc3cncn3Cc3ccc(C#N)cc3)C2)cc1 [Example 20],0.18 to 1.5 nM
5,N#Cc1ccc(Cn2cncc2CCNC(=O)[C@H]2CN(Cc3cccc(Cl)c3)CCN2C(=O)NC2CCCCC2)cc1 [Example 25],0.18 to 1.5 nM
6,COc1cccc(CN2CCN(C(=O)NC3CCCCC3)[C@@H](C(=O)NCCc3cncn3Cc3ccc(C#N)cc3)C2)c1 [Example 26],0.18 to 1.5 nM
7,COc1ccccc1CN1CCN(C(=O)NC2CCCCC2)[C@@H](C(=O)NCCc2cncn2Cc2ccc(C#N)cc2)C1 [Example 27],0.18 to 1.5 nM
8,N#Cc1ccc(Cn2cncc2CCNC(=O)[C@H]2CN(Cc3ccccc3Cl)CCN2C(=O)NC2CCCCC2)cc1 [Example 28],0.18 to 1.5 nM

# Now from value to compound:
row,IC50,SMILES
1,0.18 to 21 nM,CCCC(=O)N1CCN(Cc2ccccc2)CC1C(=O)NCCc1cncn1Cc1ccc(C#N)cc1 (stereo not shown) [Example 28F]
2,0.18 to 21 nM,N#Cc1ccc(Cn2cncc2CCNC(=O)C2CN(Cc3ccccc3)CCN2C(=O)c2ccccc2)cc1 (stereo not shown) [Example 28G]
3,0.18 to 21 nM,N#Cc1ccc(Cn2cncc2CCNC(=O)C2CN(Cc3ccccc3)CCN2C(=O)Cc2ccccc2)cc1 (stereo not shown) [Example 28I]
4,0.18 to 21 nM,N#Cc1ccc(Cn2cncc2CCNC(=O)C2CN(Cc3ccccc3)CCN2S(=O)(=O)Cc2ccccc2)cc1 (stereo not shown) [Example 28M]
5,0.18 to 21 nM and 0.18 to 1.5 nM,CC(C)(C)NC(=O)N1CCN(Cc2ccccc2)CC1C(=O)NCCc1cncn1Cc1ccc(C#N)cc1 (stereo not shown) [Example 28O]
6,0.18 to 21 nM,N#Cc1ccc(Cn2cncc2CCNC(=O)C2CN(Cc3ccccc3)CCN2C(=O)CC2CCN(C(N)=O)CC2)cc1 (stereo not shown) [Example 28Q]
7,0.18 to 21 nM,O=C(C1CN(Cc2ccccc2)CCN1C(=O)NC1CCCCC1)N(CCCn1ccnc1)Cc1ccccc1 (stereo not shown) [Example 28S]
8,0.18 to 21 nM,CC(C)(C)NC(=O)N1CCN(Cc2ccccc2)CC1C(=O)N(CCCn1ccnc1)Cc1ccccc1 (stereo not shown) [Example 28T]

# Reference: patent publication EP1140909B1, “NOVEL INHIBITORS OF FARNESYL-PROTEIN TRANSFERASE” (Schering Corporation, priority 1998, dated 2000)
